Measured values as given in publication PMC10765375, “Crystal structure and enzymology of Solanum tuberosum inositol tris/tetrakisphosphate kinase 1 (StITPK1)” (Biochemistry, 2023).
“Also recorded” adds a separate entry of the source. Structures can show the parent of a compound that is named as a salt. Where two headings read alike, the source gives them in different places.

Key:
[1] = test system: AtVIH2; design: method as in PMID 31436531; settings: isolated kinase domain ref 24; cited from earlier work
[2] = target: T1, AtITPK1; assay: Kinase assay with ATP, HPLC of products; assay type: biochemical, Arabidopsis thaliana; settings: for kinase substrate status: with ATP, HPLC
T1 construct: made in house
Experimental: (§1) Kinase assays were performed with ATP-regeneration as described for ATP-grasp kinases ITPK1/2 and VIH1/2 [2-3, 27-29], here in 20 mM HEPES pH 6.5, 1 mM MgCl2, 0.5 mM ATP and 1 mM inositol phosphate substrate. The low rate constants for phospho-kinase activity and the low sensitivity of NMR, PAGE and HPLC […]
[2-3, 27-29], here with or without 4 µM protein for 3h or 12h at 25 °C. […]
(§2) 0.5 mM inositol pyrophosphate substrate incubated with 4 µM protein at 25 °C . HPLC analysis and detection of inositol phosphates by complexation with ferric ion was performed as described. Peak area data were analysed with the chromatography Jasco ChromNav v.2 software and x,y data were imported into GraphPad Prism v.6 software (GraphPad Software Inc., San Diego, USA) for plotting of chromatograms without additional processing of the data. […]

[3] = target: T2, StITPK1 (Solanum tuberosum, UniProt A4H2J0); assay: Competition/inhibition of Ins(1,2,3,4,5)P5 5-phospho-kinase activity, HPLC; assay type: biochemical; settings: 0.5 mM competing substrate/inhibitor, 1 mM Ins(1,2,3,4,5)P5, 3h experiment
T2 sequence (A4H2J0 entry or part of it): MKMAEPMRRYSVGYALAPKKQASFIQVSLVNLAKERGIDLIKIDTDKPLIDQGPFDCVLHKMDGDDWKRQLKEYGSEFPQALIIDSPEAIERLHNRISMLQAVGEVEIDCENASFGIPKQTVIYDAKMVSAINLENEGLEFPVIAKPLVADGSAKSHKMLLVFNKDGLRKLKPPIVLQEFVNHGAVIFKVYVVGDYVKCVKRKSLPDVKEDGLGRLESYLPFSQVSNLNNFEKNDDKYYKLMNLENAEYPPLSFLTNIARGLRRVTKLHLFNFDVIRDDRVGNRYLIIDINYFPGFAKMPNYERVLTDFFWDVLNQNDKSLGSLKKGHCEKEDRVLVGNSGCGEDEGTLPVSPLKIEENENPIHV

[4] = target: T2, StITPK1; assay: Fluorescence polarization displacement of 2-FAM-InsP5; assay type: binding; settings: Cheng-Prusoff with Kd 48 nM
Source text: To determine the relative strengths of binding of different inositol phosphate and inositol pyrophosphate substrates of StITPK1 we undertook fluorescence polarization experiments with 2-FAM-InsP5 [35]. […] A saturation curve for binding of 2-FAM-InsP5 to StITPK1 is shown (Figure S5) and displacement curves are shown for diverse inositol phosphates (Figure 2). The structures of these compounds are shown (Figure S1). […]
Fluorescence polarization (anisotropy)
A curve for binding of 2-FAM-InsP5 to StITPK1 was obtained by incubation of 2 nM 2-FAM-InsP5 [1] with increasing concentration (1-500 nM) of StITPK1 in 20 mM HEPES pH 6.5, 1 mM EDTA, 100 mM NaCl, after. Thereafter, displacement assays were performed by titration of inositol phosphate, inositol pyrophosphate […]
or analog thereof with 2 nM 2-FAM-InsP5 and 50 nM StITPK1. Compounds were tested for displacement in a range of 1 nM - 50 µM. Fluorescence polarization was measured in 384-well, black, low-binding plates, Corning product 3573. Binding and displacement curves (anisotropy) were log transformed and fitted to a 4-parameter logistic (in GraphPad Prism v.6 software (GraphPad Software Inc., San Diego, USA). Fitting of the […]
Substituting the value of Kd for KM in the Cheng-Prusoff equation for competitive inhibition: […]
with concentration of 2-FAM-InsP5 [S], yielded Ki with confidence intervals adjusted by linear approximation.
M.; Jamieson, A. G.; Potter, B. V.; Schwabe, J. W., Insights into the activation mechanism of class I HDAC complexes by inositol phosphates. Nat Commun 2016, 7, 11262. […]

[5] = target: T2, StITPK1; assay: Kinase assay with ATP, HPLC of products; assay type: biochemical; settings: for Product formation (3h) / Product formation (12h): 25°C; for kinase substrate status: with ATP, HPLC
Experimental: as §1
(§3) [2-3, 27-29], here with or without 4 µM protein for 3h or 12h at 25 °C. Competition/inhibition assays were […]
InsP6, and competitor, typically 0.5 mM, incubated with or without 3 µM protein for 2 h at 25 °C . […]
as §2

[6] = test system: T1, AtITPK1; settings: cited from earlier work
[7] = target: T2, StITPK1; assay: Competition/inhibition of InsP6 5-phospho-kinase activity, HPLC; assay type: biochemical; settings: 5 μM inhibitor, 1 mM InsP6
Experimental: Figure 6 Inhibition of StITPK1 phospho-kinase activity by inositol pyrophosphate analogs. […] Reactions were performed for 2h at 30 °C with 3 μM StITPK1, 0.5 mM ATP, 1mM inositol phosphate in the absence or presence of competitor. The extent of inhibition at inhibitor concentration (mM) indicated by number in each column was estimated from the integrated peak areas of substrate and product peaks resolved by HPLC (example HPLC traces are shown in Figure S10). Significant difference at p=0.05 between inhibitor treatments (by One-way ANOVA and Tukey’s multiple comparisons test) is indicated by the absence of a common letter.
Schrödinger, LLC, New York, NY, 2021). All models of the complexes were subsequently energy minimized to convergence using the Prime module of Schrodinger (Schrödinger Release 2022-2: Prime) employing the all atom OPLS force field and the VSGB 2.1 implicit solvent model. Illustrations were generated using the PyMOL Molecular Graphics System, Version 2.5 (Schrödinger, LLC). […]
(§4) InsP6, and competitor, typically 0.5 mM, incubated with or without 3 µM protein for 2 h at 25 °C . […] Peak area data were analysed with the chromatography Jasco ChromNav v.2 software and x,y data were imported into GraphPad Prism v.6 software (GraphPad Software Inc., San Diego, USA) for plotting of chromatograms without additional processing of the data.
(§5) Fluorescence polarization (anisotropy) […]

[8] = target: T2, StITPK1; assay: Fluorescence polarization saturation binding of 2-FAM-InsP5; settings: 2 nM probe, 1-500 nM StITPK1, one-site binding model
Experimental: Schrödinger, LLC, New York, NY, 2021). All models of the complexes were subsequently energy minimized to convergence using the Prime module of Schrodinger (Schrödinger Release 2022-2: Prime) employing the all atom OPLS force field and the VSGB 2.1 implicit solvent model. Illustrations were generated using the PyMOL Molecular Graphics System, Version 2.5 (Schrödinger, LLC).
as §1, §3, §4, §5
or analog thereof with 2 nM 2-FAM-InsP5 and 50 nM StITPK1. […] Fluorescence polarization was measured in 384-well, black, low-binding plates, Corning product 3573. […]

[9] = 2 nM 2-FAM-InsP5, 50 nM StITPK1, pH 6.5, read-out: Ki for displacement of 2-FAM-InsP5

Ki [4, 9]	Discrimination between InsP4 enantiomers in favour of Ins(3,4,5,6)P4 ([2]; vs Ins(1,4,5,6)P4)	Discrimination between InsP4 enantiomers in favour of Ins(3,4,5,6)P4 ([5]; vs Ins(1,4,5,6)P4)	inhibition of 5-PP-InsP5-synthesizing (InsP6 phospho-kinase) activity [7]	SMILES	turnover number, 1-phospho-kinase activity [1]	kinase substrate status [2]	% inhibition at 3h, Ins(1,2,3,4,5)P5 substrate [3]	Product formation (3h) ([5]; 1 mM substrate)	Product formation (12h) ([5]; 1 mM substrate)	kinase substrate status [5]	Vmax relative to InsP6 [6]	Kcat for phospho-kinase activity ([6]; calculated from data ref 20-21, 27)	Ki ([4]; Ki for displacement of 2-FAM-InsP5, 2 nM 2-FAM-InsP5, 50 nM StITPK1, pH 6.5)	Product formation (separate 12h experiment) ([5]; 1 mM substrate, separate 12h experiment)	Kcat (turnover of substrate) ([5]; in the absence of inhibitor, 1 mM substrate, 0.5 mM ATP, pH 6.5)	Kd [8]
162 nM	–	–	–	O=P(O)(O)O[C@H]1[C@@H](OP(=O)(O)O)[C@H](OP(=O)(O)O)[C@@H](OP(=O)(O)OP(=O)(O)O)[C@H](OP(=O)(O)O)[C@H]1OP(=O)(O)O [5-PP-InsP5, 5-diphospho-myo-inositol 1,2,3,4,6-pentakisphosphate]	~ 1 min^-1	not a substrate	82%	0 μM/μM protein	0 μM/μM protein	not a substrate	–	–	–	–	–	–
716 nM	~ 200 fold	~ 200 fold	particularly powerful inhibitor	O=P(O)(O)O[C@H]1[C@H](OP(=O)(O)O)[C@@H](OP(=O)(O)O)[C@@H](O)[C@@H](O)[C@@H]1OP(=O)(O)O [Ins(3,4,5,6)P4, 1D-myo-inositol 3,4,5,6-tetrakisphosphate]	–	–	–	–	–	better substrate than both its enantiomer Ins(1,4,5,6)P4 and InsP6	3 orders of magnitude greater	–	–	–	–	–
–	–	–	–	O=P(O)(O)O[C@H]1[C@H](OP(=O)(O)O)[C@@H](OP(=O)(O)O)[C@H](OP(=O)(O)O)[C@@H](OP(=O)(O)O)[C@H]1OP(=O)(O)O [myo-InsP6, myo-inositol 1,2,3,4,5,6-hexakisphosphate]	~ 0.4 min^-1	strongest phospho-kinase substrate	89%	241 μM/μM protein	289 μM/μM protein	generating 5-PP-InsP5; also recorded: strongest phospho-kinase substrate	–	~ 1.5 min^-1	126 nM	220 μM/μM protein	~ 1.14 min^-1	–
–	–	–	–	O=C(NCCO[C@H]1[C@@H](OP(=O)(O)O)[C@H](OP(=O)(O)O)[C@@H](OP(=O)(O)O)[C@H](OP(=O)(O)O)[C@H]1OP(=O)(O)O)c1ccc2c(c1)C(=O)OC21c2ccc(O)cc2Oc2cc(O)ccc21 [2-FAM-InsP5, 2-O-(2-(5-fluoresceinylcarboxy)-aminoethyl)-myo-inositol 1,3,4,5,6-pentakisphosphate (triethylammonium salt)]	–	–	–	–	–	–	–	–	–	–	–	48 nM
